In PMC10829846 (Emerging Microbes & Infections, 2023):

Key:
[1] = test system: EC1864; test: Sepsis model; format: in vivo, ICR mice; conditions: compound oral + meropenem i.v., all 10 mg/kg once daily
[2] = test system: NDM-1 positive bacteria EC1864; test: Checkerboard assay with meropenem; format: cell-based, Escherichia coli; conditions: meropenem alone […]
[3] = target: T1, NDM-1 (Klebsiella pneumoniae, UniProt C7C422); test: Inhibition of NDM-1 hydrolytic activity, enzymatic assay with meropenem; format: biochemical; conditions: for Restoration of NDM-1 activity by zinc supplementation: 1-fold or 10-fold concentration of Zn^2+; for Inhibitory mode: Lineweaver-Burk plot
[4] = target: T1, NDM-1; conditions: cited from earlier work
[5] = substrate: C[C@@H](O)[C@H]1C(=O)N2C(C(=O)O)=C(S[C@@H]3CN[C@H](C(=O)N(C)C)C3)[C@H](C)[C@H]12; test: purified protein, by the assay type; format: biochemical; conditions: other: meropenem as substrate of recombinant NDM-1; pH 7.5

O=[N+]([O-])c1ccc(O)c2ncccc12 [nitroxoline, 5-nitro-8-hydroxyquinoline]
Survival rate of sepsis mice, combination therapy with meropenem [1]: did not exhibit a protective effect
MIC value of meropenem with sub-MIC concentration of the compound [2]: 8 µg/mL
Restoration of NDM-1 activity by zinc supplementation [3]: partially or fully restored
Inhibitory mode [3]: non-competitive inhibition
Concentration that completely inhibited NDM-1 activity [4]: 30 µM

O=C(O)CN(CCN(CC(=O)O)CC(=O)O)CC(=O)O [EDTA]
Restoration of NDM-1 activity by zinc supplementation [3]: partially or fully restored
Inhibitory mode [3]: non-competitive inhibition

B1: recombinant NDM-1 (Klebsiella pneumoniae) (protein)
chain: MHHHHHHMPGEIRPTIGQQMETGDQRFGDLVFRQLAPNVWQHTSYLDMPGFGAVASNGLIVRDGGRVLVVDTAWTDDQTAQILNWIKQEINLPVALAVVTHAHQDKMGGMDALHAAGIATYANALSNQLAPQEGMVAAQHSLTFAANGWVEPATAPNFGPLKVFYPGPGHTSDNITVGIDGTDIAFGGCLIKDSKAKSLGNLGDADTEHYAASARAFGAAFPKASMIVMSHSAPDSRAAITHTARMADKLR
Km [5]: 54.72 µM
kcat [5]: 11.71 s⁻¹
